Test results reported in US20020026053A1, “Novel 3-(substituted) -2- indolinones compounds and use thereof as inhibitors of protein kinase activity” (priority 1997, published 2002).
Where two headings read alike, the source gives them in different places.

Columns and labels:
[1] = test system: PDGF-R; experiment: PDGF-R Assay (cellular ELISA, U1242 cells); type: cell-based; design: concentration or dose not given beside the values
How it was run: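 Cellular ELISA for receptor autophosphorylation: after 2 hr test-compound treatment of serum-free U1242 cells at 37°C, ligand is added for 5–10 min, cells are lysed (HNTG) and receptor captured by specific antibody. Anti-phosphotyrosine plus secondary antibody with ABTS colour read at 410/630 nm, compared with compound-free control cells.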

[2] = target: T1, EGFR (Homo sapiens, UniProt P00533); experiment: Biochemical EGFR Assay; design: concentration or dose not given beside the values
T1 construct: endogenous in cells; host or cells: A431 cells (lysate, captured with SUMO1 anti-EGFR antibody)
T1 sequence (P00533 25-1210): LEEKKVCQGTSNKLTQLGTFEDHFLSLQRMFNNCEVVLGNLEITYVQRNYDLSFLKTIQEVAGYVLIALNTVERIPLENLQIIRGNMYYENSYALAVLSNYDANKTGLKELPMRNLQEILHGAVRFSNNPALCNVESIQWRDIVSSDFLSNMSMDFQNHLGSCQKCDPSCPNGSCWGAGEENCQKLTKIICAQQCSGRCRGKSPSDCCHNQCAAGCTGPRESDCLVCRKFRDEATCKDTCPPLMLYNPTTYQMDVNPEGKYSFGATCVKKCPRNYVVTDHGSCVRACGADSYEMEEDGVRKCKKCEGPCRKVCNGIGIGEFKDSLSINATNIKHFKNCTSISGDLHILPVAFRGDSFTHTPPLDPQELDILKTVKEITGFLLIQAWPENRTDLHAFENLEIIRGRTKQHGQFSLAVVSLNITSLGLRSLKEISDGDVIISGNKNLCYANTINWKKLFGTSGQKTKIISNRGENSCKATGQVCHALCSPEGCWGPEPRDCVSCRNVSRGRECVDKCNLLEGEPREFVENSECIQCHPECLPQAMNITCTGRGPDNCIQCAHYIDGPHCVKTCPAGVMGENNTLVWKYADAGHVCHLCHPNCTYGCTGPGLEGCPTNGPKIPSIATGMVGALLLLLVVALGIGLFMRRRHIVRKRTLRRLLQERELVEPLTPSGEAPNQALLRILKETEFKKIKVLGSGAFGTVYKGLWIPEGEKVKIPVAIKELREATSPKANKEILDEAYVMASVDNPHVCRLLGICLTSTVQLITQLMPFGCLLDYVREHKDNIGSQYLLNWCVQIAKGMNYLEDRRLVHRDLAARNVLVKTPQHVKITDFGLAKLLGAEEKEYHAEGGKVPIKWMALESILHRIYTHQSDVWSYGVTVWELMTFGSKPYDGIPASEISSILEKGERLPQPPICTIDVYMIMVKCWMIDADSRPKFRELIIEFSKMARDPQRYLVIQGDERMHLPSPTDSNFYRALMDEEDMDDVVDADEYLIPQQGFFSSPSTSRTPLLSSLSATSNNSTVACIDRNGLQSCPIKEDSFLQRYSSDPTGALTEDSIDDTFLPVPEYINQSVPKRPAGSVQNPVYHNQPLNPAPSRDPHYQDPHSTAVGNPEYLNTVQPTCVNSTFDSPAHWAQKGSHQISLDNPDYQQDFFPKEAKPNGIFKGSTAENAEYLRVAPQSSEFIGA
How it was run: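 Readout is ABTS absorbance at 410 nm after anti-phosphotyrosine and HRP-antibody detection of EGFR autophosphorylation. The kinase was immunocaptured from A431 lysate, exposed 30 min to test compound diluted 1:10 in TBS, then phosphorylated for 5 min with ATP/MnCl2 before an EDTA stop.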

Structure (SMILES)	PDGF Kinase % Inhibition (P.119) [1]	Biochem EGFR % Inhibition (P.167) [2]	PDGF Kinase % Inhibition (P.119) ([1]; protocol P.119)	Biochem EGFR % Inhibition (P.167) ([2]; protocol P.167)
Cc1c(Br)cc(Br)c2c1C(=Cc1cccn1-c1ccc(Cl)cc1)C(=O)N2 [10724/H09]	−13.1%	−33.5%	–	–
CCc1ccc(C=C2C(=O)Nc3c(Br)cc(Br)c(C)c32)o1 [10724/H10]	−2.7%	−25.5%	–	–
Cc1c(Br)cc(Br)c2c1C(=Cc1sc3scc(C)c3c1C)C(=O)N2 [10724/H11]	−31.2%	−12.8%	–	–
Cc1c(Br)cc(Br)c2c1C(=Cc1sccc1Br)C(=O)N2 [10725/H02]	−19.9%	−23.5%	–	–
COc1ccc(Br)c(C=C2C(=O)Nc3c(Br)cc(Br)c(C)c32)c1O [10725/H03]	−12.8%	−16.5%	–	–
Cc1ccc(C=C2C(=O)Nc3c(Br)cc(Br)c(C)c32)o1 [10725/H04]	−4.1%	17.2%	–	–
Cc1cc(C=C2C(=O)Nc3c(Br)cc(Br)c(C)c32)[nH]n1 [10725/H05]	14.6%	−30.2%	–	–
COc1cc(C)cc(O)c1C=C1C(=O)Nc2c(Br)cc(Br)c(C)c21 [10725/H06]	6.9%	0.3%	–	–
Cc1c(Br)cc(Br)c2c1C(=Cc1ccc(N3CCN(C=O)CC3)cc1)C(=O)N2 [10725/H07]	2.6%	−13.3%	–	–
Cc1c(Br)cc(Br)c2c1C(=Cc1ccc(N3CCOCC3)cc1)C(=O)N2 [10725/H08]	13.6%	−3.7%	–	–
COC(=O)Cc1c(Cl)[nH]c(C=C2C(=O)Nc3c(Br)cc(Br)c(C)c32)c1C(=O)OC [10725/H09]	9.3%	−28.4%	–	–
Cc1c(Br)cc(Br)c2c1C(=Cc1c(Br)cnn1-c1ccc(Cl)cc1)C(=O)N2 [10725/H10]	12.2%	9.1%	–	–
Cc1c(Br)cc(Br)c2c1C(=Cc1c[nH]cn1)C(=O)N2 [10725/H11]	16.5%	0.5%	–	–
Cc1c(Br)cc(Br)c2c1C(=Cc1ccccc1[N+](=O)[O-])C(=O)N2 [10726/H02]	−8.3%	−11.2%	–	–
CCOC(=O)c1[nH]c(C=C2C(=O)Nc3c(Br)cc(Br)c(C)c32)c(C(=O)OC)c1C [10726/H03]	−17.8%	14.0%	–	–
Cc1cc(C=C2C(=O)Nc3c(Br)cc(Br)c(C)c32)cc(C(C)(C)C)c1O [10726/H04]	13.2%	75.5%	–	–

Structure (SMILES)	PDGF Kinase % Inhibition (P.119) [1]	Biochem EGFR % Inhibition (P.167) [2]	PDGF Kinase % Inhibition (P.119) ([1]; protocol P.119)	Biochem EGFR % Inhibition (P.167) ([2]; protocol P.167)
COc1cccc(C=C2C(=O)Nc3ccc(S(=O)(=O)N4CCOCC4)cc32)c1 [10736/F10]	11.0%	−0.7%	–	–
O=C1Nc2ccc(S(=O)(=O)N3CCOCC3)cc2C1=Cc1ccccc1Cl [10736/F11]	4.4%	−23.4%	–	–
O=C1Nc2ccc(CCCl)cc2C1=Cc1ccc(Cl)cc1 [10736/G02]	−5.2%	−4.5%	–	–
O=C1Nc2ccc(CCCl)cc2C1=Cc1ccccc1C(F)(F)F [10736/G03]	1.4%	23.0%	–	–
Cc1cccc(C=C2C(=O)Nc3ccc(CCCl)cc32)c1 [10736/G04]	−8.3%	−35.0%	–	–
O=C1Nc2ccc(CCCl)cc2C1=Cc1cccc(F)c1 [10736/G07]	–	–	−14.8%	−74.8%
O=C1Nc2ccc(CCCl)cc2C1=Cc1ccccc1F [10736/G08]	–	–	−9.2%	−9.2%
CCc1ccc(C=C2C(=O)Nc3ccc(CCCl)cc32)cc1 [10736/G09]	–	–	−3.5%	12.4%
COc1cccc(C=C2C(=O)Nc3ccc(CCCl)cc32)c1 [10736/G10]	–	–	−7.4%	−4.5%
O=C1Nc2ccc(CCCl)cc2C1=Cc1ccccc1Cl [10736/G11]	–	–	−1.7%	−6.4%
Cc1c(Br)cc(Br)c2c1C(=Cc1ccc(Cl)cc1)C(=O)N2 [10736/H02]	–	–	−6.1%	−32.0%
Cc1c(Br)cc(Br)c2c1C(=Cc1ccccc1C(F)(F)F)C(=O)N2 [10736/H03]	–	–	2.2%	−1.4%
Cc1cccc(C=C2C(=O)Nc3c(Br)cc(Br)c(C)c32)c1 [10736/H04]	–	–	−10.9%	−4.3%
Cc1ccc(C=C2C(=O)Nc3c(Br)cc(Br)c(C)c32)cc1 [10736/H05]	–	–	−10.0%	−28.9%
Cc1c(Br)cc(Br)c2c1C(=Cc1cccc(Cl)c1)C(=O)N2 [10736/H06]	–	–	9.3%	12.6%
